In publication PMC7114565 (Virus Research, 2016):
“And” between values parts separate entries of the source, which are not always exact repeats. Identical values can stand only once. “Also recorded” adds a separate entry of the source.

How the values were obtained:
MERS-CoV EMC/2012 [1] = assay type: cell-based
SARS-CoV = assay type: cell-based
[2] = tested on: murine hepatitis virus (MHV; strain A59); assay type: cell-based
[3] = tested on: human coronavirus 229E (HCoV-229E); assay type: cell-based
MERS-CoV EMC/2012 [4] = tested on: MERS-CoV EMC/2012
HCoV-NL63 = conditions: cited from earlier work
in vitro [5] = conditions: rhesus monkey
in vitro [6] = conditions: mouse
MERS-CoV EMC/2012 [7] = assay: microbe, parasite or virus in culture; conditions: Middle East respiratory syndrome-related coronavirus, Huh-7, 48 h

Row | SMILES | decrease in MERS-CoV progeny titer (MERS-CoV EMC/2012 [1]) | reduction of MERS-CoV progeny titer (MERS-CoV EMC/2012 [1]) [log] | effect on SARS-CoV infection (SARS-CoV) | reduction in SARS-CoV virus progeny (SARS-CoV) [log] | decrease of MHV progeny titers [2] [log] | reduction of MHV progeny titers [2] [log] | reduction of HCoV-229E production [3] | CC50 values times higher than the observed EC50 values (MERS-CoV EMC/2012 [4]) | EC50 (HCoV-NL63) [µM] | reduction in HCoV-NL63 virus progeny (HCoV-NL63) [log] | CC50 (in vitro [5]) [µM] | viability (in vitro [6]) [%] | EC50 (MERS-CoV EMC/2012 [7]) [µM] | effect on cell viability (LLC-MK2 cells)
1 | C/C=C/C[C@@H](C)[C@@H](O)[C@H]1C(=O)N[C@@H](CC)C(=O)N(C)[C@H](C)C(=O)N(CC)[C@@H](C(C)C)C(=O)N[C@@H](C(C)C)C(=O)N(C)[C@@H](CC(C)C)C(=O)N[C@@H](C)C(=O)N[C@H](C)C(=O)N(C)[C@@H](CC(C)C)C(=O)N(C)[C@@H](CC(C)C)C(=O)N(C)[C@@H](C(C)C)C(=O)N1C [ALV, alisporivir] | comparable decrease in progeny titer | ~2 | sensitive; also recorded: near-complete block | ~1.5 | 1 | ~2 | ~1.5 log and ~2 log | 7–13 times | 0.8 | 4 | 14.3 ± 1.8 | > 85 | 3.4 ± 1 | 
2 | NC(=O)c1ncn([C@@H]2O[C@H](CO)[C@@H](O)[C@H]2O)n1 [ribavirin] |  |  |  |  |  |  |  |  |  |  |  |  |  | gradually lowered the cell viability
